Data from patent publication US20070249555A1, “Use of Atp Analogues for Treatment of Cardiovascular Diseases” (INSTITUT NATIONAL DE LA SANTE ET DE LA RECHERCHE MEDICALE …, priority 2004, published 2007).

Legend:
HepG2 cells = assay: LDL internalization by HepG2 cells, without or with P2Y13 receptor silencing; type: cell-based, human; conditions: HepG2, 75 μg/ml 125I-LDL, 100 nM, both without or with P2Y13 receptors silencing
Procedure: Experiment was performed as in FIG. 2C except that HepG2 cells were incubated for 10 minutes at 37° C. with 75 μg/ml ^125I-LDL (n>6).
(§1) Internalization assays were performed as described in Guendouzi et al., (Biochemistry, 1998, 37: 14974-80) on HepG2 cells, obtained from the American Type Culture Collection ([…]). Cells were incubated for 10 minutes at 37° C. with 75 μg/ml of either ^125I-TG-HDL2, ^125I-HDL3 or ^125I-LDL. After washing and dissociation at 4° C. in phosphate buffered saline (PBS), cell radioactivity was determined using a Wallac 1261 multigamma apparatus.
The silencing of the different P2Y receptors were carried-out using the siRNA technique. The siRNA sequenced targeting human P2Y13 receptor (Gene Bank GB/EMBL/DDBJ accession number AF295368) was from position 406 or 359 relative to the start codon. The siRNA duplex (21-nt-RNAs) in deprotected and desalted form, the siRNA targeting human P2Y1 receptor (a mix of 4 siRNAs, M-005689), and the non-specific control siRNA (D-001206-01) were purchased from Dharmacon Inc. Subconfluent HepG2 cells were transiently transfected with siRNAs (final concentration, 100 nM) using Oligofectamine™ according to the manufacturer's protocole (Invitrogen). Cells were usually assayed 48 hours after transfection. […]
Results are expressed as a percentage of internalization with respect to the control value (set at 0). […]

human P2Y13 receptor = biological target: T1, human P2Y13 receptor (Homo sapiens, UniProt Q9BPV8); assay: forskolin-induced cAMP formation in hP2Y13-CHO-K1 cells; type: cell-based; conditions: forskolin 3 μM; for maximal inhibition (decrease) of forskolin-induced cAMP accumulation / IC50: hP2Y13-CHO-K1 cells, 12 min; for IC50: read-out: IC50 for inhibition of forskolin-induced cAMP accumulation
T1 construct: expressed in transfected cells
T1 sequence (Q9BPV8 22-354 limits assumed): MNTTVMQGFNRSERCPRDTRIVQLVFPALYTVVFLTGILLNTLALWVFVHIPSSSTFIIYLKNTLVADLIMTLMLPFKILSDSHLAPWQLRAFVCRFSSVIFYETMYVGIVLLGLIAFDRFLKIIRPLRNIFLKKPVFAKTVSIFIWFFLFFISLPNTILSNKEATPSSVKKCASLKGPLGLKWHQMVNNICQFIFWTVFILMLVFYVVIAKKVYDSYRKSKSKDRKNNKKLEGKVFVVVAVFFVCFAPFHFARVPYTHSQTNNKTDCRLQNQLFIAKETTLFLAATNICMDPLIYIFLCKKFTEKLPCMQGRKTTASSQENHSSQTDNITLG
Procedure: The cells were incubated with various concentrations of these agents for 12 min as described in “Materials and Methods”. Data are expressed in % on the value with forskolin alone and presented as mean ±S.D. of triplicates in one representative experiment out of 4.
AR-C69931MX and ADP (at increasing concentrations) were added simultaneously with forskolin to hP2Y13-CHO-K1 cells for a 12 min incubation period. Data are expressed in % of the value with forskolin alone and presented as mean ±S.D. of triplicates in one representative experiment out of 2. (▴): ADP without AR-C69931MW; (●): ADP+AR-C69931MX (100 nM).
The cyclic AMP assays was performed on CHO-K1 cell lines expressing recombinant P2Y receptors as follows.
The CHO-K1 cell line stably expressing the human P2Y13 receptor has been previously described (Communi et al., J Biol Chem, 2001, 276: 41479-85). The plasmid of human P2Y12 receptor (hP2Y12-pEFIN5) was obtained from Euroscreen (Gosselies, Belgium) and was stably transfected into CHO-K1 cells by using the FuGENETM6 transfection reagent (Roche Applied Science, Mannheim, Germany). Transfected cells were selected using G418 (400 μg/ml). The hP2Y13-CHO-K1 and HP2Y12-CHO-K1 cells were grown in Ham'S F12 cell culture medium (Invitrogen-France) supplemented with fetal bovine serum (10%, v/v), penicillin (100 units/ml), streptomycin (100 μg/ml) and G418 (400 μg/ml).
The stably transfected CHO-K1 cells (200,000 cells/dish) were seeded on 35-mm diameter cell culture dishes in complete medium one day before the experiment. Cells were incubated for 2 hours in Krebs-Ringer-Hepes (KRH) buffer (124 mM NaCl, 5 mM KCl, 1.25 mM MgSO4, 1.45 mM CaCl2, 1.25 mM KH2PO4, 25 mM HEPES, pH 7.4, and 8 mM D-glucose) containing 25 μM Rolipram. Nucleotides were then added in presence of 3 μM forskolin, usually for a 12 min incubation (37° C.). The reactions were stopped by aspiration of the incubation medium and addition of 1 ml of 0.1 M HCl. The lysates were then vacuum dried and re-suspended in an appropriate volume of water. Cyclic AMP was quantified by 125l radioimmunoassay, as described in Communi et al., J Biol Chem, 2001, 276: 41479-85.

human P2Y1 receptor = biological target: T2, human P2Y1 receptor (Homo sapiens, UniProt P47900); assay: TG-HDL2 internalization by HepG2 cells after P2Y1 receptor silencing by siRNA; type: cell-based; conditions: HepG2, pool of 4 P2Y1 siRNAs 100 nM, 48 h; apoA-I 10 μg/ml, ADP 100 nM, AR-C69931MX 100 nM
T2 construct: host or cells: HepG2
Procedure: HepG2 cells were transiently transfected with siRNA designated to human P2Y1 receptor (columns d, e, f, g) or with non specific siRNA as control (a, b, c). 48 hours later, cells were incubated for 10 minutes at 37° C. with 75 μg/ml ^125I-TG HDL2 without (control) or with apolipoprotein A-I 10 μg/ml (a and d), ADP 100 nM (b and e), AR-C69931MX 100 nM (c and f), PBS (g). Data are expressed as a percentage of internalized radioactivity with respect to the control value (set as 0) (n>5); (*) p<0.05 (unpaired t-test).
as §1
The silencing of the different P2Y receptors were carried-out using the siRNA technique. The siRNA sequenced targeting human P2Y13 receptor (Gene Bank GB/EMBL/DDBJ accession number AF295368) was from position 406 or 359 relative to the start codon. The siRNA duplex (21-nt-RNAs) in deprotected and desalted form, the siRNA targeting human P2Y1 receptor (a mix of 4 siRNAs, M-005689), and the non-specific control siRNA (D-001206-01) were purchased from Dharmacon Inc. Subconfluent HepG2 cells were transiently transfected with siRNAs (final concentration, 100 nM) using Oligofectamine™ according to the manufacturer's protocole (Invitrogen). Cells were usually assayed 48 hours after transfection. Specific silencing effect was confirmed by at least three independent experiments.
Results are expressed as a percentage of internalization with respect to the control value (set at 0). Control corresponded to a basal value of internalization, amounting to 400 ng, 300 ng, 200 ng of TG-HDL2, HDL3 and LDL per mg of cells protein respectively for 10 minutes. […]

T2 sequence (P47900 whole entry): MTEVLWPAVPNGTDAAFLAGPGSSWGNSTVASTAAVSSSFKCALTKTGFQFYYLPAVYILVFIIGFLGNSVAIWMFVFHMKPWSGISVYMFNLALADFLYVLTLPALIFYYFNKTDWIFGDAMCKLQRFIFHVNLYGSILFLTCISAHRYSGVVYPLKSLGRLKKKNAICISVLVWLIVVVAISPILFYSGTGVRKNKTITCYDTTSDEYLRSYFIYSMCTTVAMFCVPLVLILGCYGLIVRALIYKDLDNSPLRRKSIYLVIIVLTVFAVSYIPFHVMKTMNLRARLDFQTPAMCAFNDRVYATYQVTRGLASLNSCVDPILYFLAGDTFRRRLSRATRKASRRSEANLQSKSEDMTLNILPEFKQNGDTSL

| SMILES | stimulation of internalization of 125I-labelled LDL (HepG2 cells) | maximal inhibition (decrease) of forskolin-induced cAMP accumulation (human P2Y13 receptor) [%] | IC50 (human P2Y13 receptor) [pM] | effect of P2Y1 receptors silencing on the stimulation of TG-HDL2 endocytosis (human P2Y1 receptor) | behaviour at P2Y13 receptor (modulation of ADP effect on cAMP) (human P2Y13 receptor; AR-C69931MX 100 nM with increasing ADP) |
| --- | --- | --- | --- | --- | --- |
| Nc1ncnc2c1ncn2[C@@H]1O[C@H](COP(=O)(O)OP(=O)(O)O)[C@@H](O)[C@H]1O [ADP, adenosine diphosphate, reference compound] | lack of stimulation | 70 | 600 ± 200 | no effect | – |
| CSCCNc1nc(SCCC(F)(F)F)nc2c1ncn2[C@@H]1O[C@H](COP(=O)(O)OP(=O)(O)C(Cl)(Cl)P(=O)(O)O)[C@@H](O)[C@H]1O [AR-C69931MX, N-[2-(methylthio)ethyl]-2-[(3,3,3-trifluoropropyl)thio]-5′-adenylic acid, monoanhydride with dichloromethylenebisphosphonic acid] | lack of stimulation | 25 | 500 ± 100 | no effect | partial agonist |
